Test results from the supplement of paper PMC10307832.

Key:
Assay in all cases: relative viability (nuclei count vs DMSO), 5 days (fraction); higher = more cells survive
Wnt-C59 + Dasatinib = compound: CC1=NC=CC(=C1)C2=CC=C(C=C2)CC(=O)NC3=CC=C(C=C3)C4=CN=CC=C4 [Wnt-C59] + Cc1nc(Nc2ncc(C(=O)Nc3c(C)cccc3Cl)s2)cc(N2CCN(CCO)CC2)n1 [Dasatinib] (partner 0.075 µM)
How it was run: (§1)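 Nuclei were stained with Hoechst during a one-step fixation (final 0.05% Triton X-100, 1% formaldehyde, 1 ug/ml Hoechst) carried out 5 days after dosing, then counted on 4× images. The cells, lung cancer lines in 1536-well plates, had been dosed by pin tool the day after seeding with one drug alone or a fixed anchor-drug dose plus five library-drug doses (not always all listed) in √10 steps. Relative viability is the nuclei count in treated wells divided by that in vehicle wells, and each value is the median of duplicate plates.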

Lapatinib + Navitoclax = compound: CS(=O)(=O)CCNCc1ccc(-c2ccc3ncnc(Nc4ccc(OCc5cccc(F)c5)c(Cl)c4)c3c2)o1 [Lapatinib] + CC1(C)CCC(c2ccc(Cl)cc2)=C(CN2CCN(c3ccc(C(=O)NS(=O)(=O)c4ccc(N[C@H](CCN5CCOCC5)CSc5ccccc5)c(S(=O)(=O)C(F)(F)F)c4)cc3)CC2)C1 [Navitoclax] (partner 0.5 µM)
How it was run: as §1

Lapatinib + Linsitinib = compound: CS(=O)(=O)CCNCc1ccc(-c2ccc3ncnc(Nc4ccc(OCc5cccc(F)c5)c(Cl)c4)c3c2)o1 [Lapatinib] + C[C@]1(O)C[C@@H](c2nc(-c3ccc4ccc(-c5ccccc5)nc4c3)c3c(N)nccn32)C1 [Linsitinib] (partner 1 µM)
How it was run: as §1

Lapatinib + Pemetrexed = compound: CS(=O)(=O)CCNCc1ccc(-c2ccc3ncnc(Nc4ccc(OCc5cccc(F)c5)c(Cl)c4)c3c2)o1 [Lapatinib] + Nc1nc2[nH]cc(CCc3ccc(C(=O)N[C@@H](CCC(=O)O)C(=O)O)cc3)c2c(=O)[nH]1 [Pemetrexed] (partner 0.2 µM)
How it was run: as §1

Question: Which relative viability (Wnt-C59 + Dasatinib; first compound 0.001 µM) does the source give for UMC-11 here?
Answer: 0.444

Question: And the relative viability (Wnt-C59 + Dasatinib; first compound 0.01 µM)?
Answer: 0.417

Question: And the relative viability (Wnt-C59 + Dasatinib; first compound 0.03162 µM)?
Answer: 0.525

Question: And the relative viability (Wnt-C59 + Dasatinib; first compound 0.1 µM)?
Answer: 0.468

Question: And the relative viability (Lapatinib + Navitoclax; first compound 0.02 µM)?
Answer: 0.352

Question: What about the relative viability (Lapatinib + Navitoclax; first compound 0.06325 µM) of the same cell line?
Answer: 0.278

Question: What about the relative viability (Lapatinib + Navitoclax; first compound 0.2 µM) of the same cell line?
Answer: 0.311

Question: And the relative viability (Lapatinib + Navitoclax; first compound 0.6325 µM)?
Answer: 0.318

Question: What about the relative viability (Lapatinib + Navitoclax; first compound 2 µM) of the same cell line?
Answer: 0.314

Question: And the relative viability (Lapatinib + Linsitinib; first compound 0.02 µM)?
Answer: 1

Question: And the relative viability (Lapatinib + Linsitinib; first compound 0.06325 µM)?
Answer: 0.964

Question: What about the relative viability (Lapatinib + Linsitinib; first compound 0.2 µM) of the same cell line?
Answer: 1.11

Question: What about the relative viability (Lapatinib + Linsitinib; first compound 0.6325 µM) of the same cell line?
Answer: 0.985

Question: What about the relative viability (Lapatinib + Linsitinib; first compound 2 µM) of the same cell line?
Answer: 1.02

Question: And the relative viability (Lapatinib + Pemetrexed; first compound 0.02 µM)?
Answer: 0.803

Question: And the relative viability (Lapatinib + Pemetrexed; first compound 0.06325 µM)?
Answer: 0.7

Question: And the relative viability (Lapatinib + Pemetrexed; first compound 0.2 µM)?
Answer: 0.781

Question: What about the relative viability (Lapatinib + Pemetrexed; first compound 0.6325 µM) of the same cell line?
Answer: 0.795

Question: And the relative viability (Lapatinib + Pemetrexed; first compound 2 µM)?
Answer: 0.753
